From patent US10676465B2, “GLP-1 receptor agonists and uses thereof” (Pfizer Inc., priority 2018, dated 2020)
pEC50: −log10 of the molar value. Where two headings read alike, the source gives them in different places.

What was measured:
human GLP-1R [1] = target: human GLP-1R (Homo sapiens (Human), UniProt P43220, L260F); test: CHO GLP-1R Clone C6 - Assay 2 (HTRF cAMP agonist assay, low receptor density); conditions: for Emax: read-out: Assay 2 Emax (%), CHO GLP-1R Clone C6 (low receptor density); for Emax / Assay 2 Emax (%): arithmetic mean, relative to saturating GLP-1 (1 μM); for EC50: Assay 2 EC50 (nM)
Procedure: CHO GLP-1R Clone C6—Assay 2
GLP-1R-mediated agonist activity was determined with a cell-based functional assay utilizing an HTRF (Homogeneous Time-Resolved Fluorescence) cAMP detection kit (cAMP HI Range Assay Kit; Cis Bio cat #62AM6PEJ) that measures cAMP levels in the cell. The method is a competitive immunoassay between native cAMP produced by the cells and exogenous cAMP labeled with the dye d2. The tracer binding is visualized by a mAb anti-cAMP labeled with Cryptate. The specific signal (i.e. energy transfer) is inversely proportional to the concentration of cAMP in either a standard or an experimental sample.
The human GLP-1R coding sequence (NCBI Reference Sequence NP_002053.3, including naturally-occurring variant Leu260Phe) was subcloned into pcDNA5-FRT-TO and a clonal CHO cell line stably expressing a low receptor density was isolated using the Flp-In™ T-Rex™ System, as described by the manufacturer (ThermoFisher).
Cells were removed from cryopreservation, re-suspended in 40 mL of Dulbecco's Phosphate Buffered Saline (DPBS—Lonza Cat #17-512Q) and centrifuged at 800×g for 5 minutes at 22° C. The DPBS was aspirated, and the cell pellet was re-suspended in 10 mL of complete growth medium (DMEM:F12 1:1 Mixture with HEPES, L-Gln, 500 mL (DMEM/F12 Lonza Cat #12-719F), 10% heat inactivated fetal bovine serum (Gibco Cat #16140-071), 5 mL of 100× Pen-Strep (Gibco Cat #15140-122), 5 mL of 100×L-Glutamine (Gibco Cat #25030-081), 700 μg/mL Hygromycin (Invitrogen Cat #10687010) and 15 μg/mL Blasticidin (Gibco Cat # R21001). A 1 mL sample of the cell suspension in growth media was counted on a Becton Dickinson ViCell to determine cell viability and cell count per mL. The remaining cell suspension was then adjusted with growth media to deliver 1600 viable cells per well using a Matrix Combi Multidrop reagent dispenser, and the cells were dispensed into a white 384 well tissue culture treated assay plate (Corning 3570). The assay plate was then incubated for 48 hours at 37° C. in a humidified environment (95% O2, 5% CO2)
Varying concentrations of each compound to be tested (in DMSO) were diluted in assay buffer [HBSS with Calcium/Magnesium (Lonza/BioWhittaker cat #10-527F)/0.1% BSA (Sigma Aldrich cat # A7409-1L)/20 mM HEPES (Lonza/BioWhittaker cat #17-737E)] containing 100 μM 3-isobutyl-1-methylxanthin (IBMX; Sigma cat #15879). The final DMSO concentration in the compound/assay buffer mixture is 1%.
After 48 hours, the growth media was removed from the assay plate wells, and the cells were treated with 20 μL of the serially diluted compound in assay buffer for 30 minutes at 37° C. in a humidified environment (95% O2, 5% CO2). Following the 30 minute incubation, 10 μL of labeled d2 cAMP and 10 μL of anti-cAMP antibody (both diluted 1:20 in cell lysis buffer; as described in the manufacturer's assay protocol) were added to each well of the assay plate. The plates were then incubated at room temperature and after 60 minutes, changes in the HTRF signal were read with an Envision 2104 multi-label plate reader using excitation of 330 nm and emissions of 615 and 665 nm. Raw data were converted to nM cAMP by interpolation from a cAMP standard curve (as described in the manufacturer's assay protocol) and the percent effect was determined relative to a saturating concentration of the full agonist GLP-1 (1 μM) included on each plate. EC50 determinations were made from agonist dose response curves analyzed with a curve fitting program using a 4-parameter logistic dose response equation.

human GLP-1R [2] = target: human GLP-1R (Homo sapiens, UniProt P43220, G168S); test: CHO GLP-1R Clone H6 - Assay 1 (HTRF cAMP agonist assay); format: cell-based; conditions: for pEC50: CHO GLP-1R Clone H6, cAMP HTRF, geometric mean; for Emax / Assay 1 Emax (%): CHO GLP-1R Clone H6, arithmetic mean, relative to saturating GLP-1 (1 μM)
[3] = read-out: Assay 2 EC50, CHO GLP-1R Clone C6 (low receptor density), cAMP HTRF, geometric mean
[4] = CHO GLP-1R Clone C6 (low receptor density), cAMP HTRF, geometric mean
[5] = CHO GLP-1R Clone C6 (low receptor density)

human GLP-1R (Homo sapiens (Human), UniProt P43220, L260F), sequence (P43220 24-463 L260F): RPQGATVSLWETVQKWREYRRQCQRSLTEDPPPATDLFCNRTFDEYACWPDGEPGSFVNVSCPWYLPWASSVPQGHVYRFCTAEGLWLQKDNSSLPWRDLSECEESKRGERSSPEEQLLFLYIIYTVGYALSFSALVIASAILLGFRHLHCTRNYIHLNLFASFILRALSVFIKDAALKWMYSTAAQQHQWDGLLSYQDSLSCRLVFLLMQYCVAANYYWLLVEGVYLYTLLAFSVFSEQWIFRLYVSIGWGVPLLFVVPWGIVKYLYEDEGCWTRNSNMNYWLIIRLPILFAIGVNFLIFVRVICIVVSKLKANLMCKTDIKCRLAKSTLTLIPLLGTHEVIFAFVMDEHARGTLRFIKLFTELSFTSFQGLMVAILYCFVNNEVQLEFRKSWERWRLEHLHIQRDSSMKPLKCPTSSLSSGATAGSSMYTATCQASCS
human GLP-1R (Homo sapiens, UniProt P43220, G168S), sequence (P43220 24-463 G168S limits assumed): as the sequence (P43220 24-463 L260F) above, with G145S, F237L counted along it

CC1(c2ccc(Cl)cc2F)Oc2cccc(C3CCN(Cc4nc5ccc(C(=O)O)cc5n4Cc4ccccn4)CC3)c2O1 (stereo not drawn) [Example 45, 2-({4-[2-(4-chloro-2-fluorophenyl)-2-methyl-1,3-benzodioxol-4-yl]piperidin-1-yl}methyl)-1-(pyridin-2-ylmethyl)-1H-benzimidazole-6-carboxylic acid]
pEC50 (human GLP-1R [1]; [3]): 6.66
Emax (human GLP-1R [1]): 79%
pEC50 (human GLP-1R [2]): 8.00
Emax (human GLP-1R [2]): 81%

Cc1nccn1CCn1c(CN2CCC(c3cccc4c3OC(C)(c3ccc(Cl)cc3F)O4)CC2)nc2ccc(C(=O)O)cc21 (stereo not drawn) [Example 62, 2-({4-[2-(4-chloro-2-fluorophenyl)-2-methyl-1,3-benzodioxol-4-yl]piperidin-1-yl}methyl)-1-[2-(2-methyl-1H-imidazol-1-yl)ethyl]-1H-benzimidazole-6-carboxylic acid]
pEC50 (human GLP-1R [1]; [3]): 7.09
Emax (human GLP-1R [1]): 95%
pEC50 (human GLP-1R [2]): 8.66
Emax (human GLP-1R [2]): 94%

CC1(c2ccc(Cl)cc2F)Oc2cccc(C3CCN(Cc4nc5ccc(C(=O)O)nc5n4Cc4cnco4)CC3)c2O1 (stereo not drawn) [Example 81, 2-({4-[2-(4-chloro-2-fluorophenyl)-2-methyl-1,3-benzodioxol-4-yl]piperidin-1-yl}methyl)-3-(1,3-oxazol-5-ylmethyl)-3H-imidazo[4,5-b]pyridine-5-carboxylic acid]
pEC50 (human GLP-1R [1]; [3]): 7.27
Emax (human GLP-1R [1]): 110%
pEC50 (human GLP-1R [2]): 7.54
Emax (human GLP-1R [2]): 110%

COCCn1c(CN2CCC(c3cccc4c3OC(c3ccc(Cl)cc3F)O4)CC2)nc2ccc(C(=O)O)cc21 (stereo not drawn) [Example 20, 2-({4-[2-(4-chloro-2-fluorophenyl)-1,3-benzodioxol-4-yl]piperidin-1-yl}methyl)-1-(2-methoxyethyl)-1H-benzimidazole-6-carboxylic acid]
pEC50 (human GLP-1R [1]; [3]): 6.57
Emax (human GLP-1R [1]): 100%
pEC50 (human GLP-1R [2]): 7.77
Emax (human GLP-1R [2]): 85%

CC1(c2ccc(Cl)cc2F)Oc2cccc(C3CCN(Cc4nc5ccc(C(=O)O)cc5n4CCN4CCOC4=O)CC3)c2O1 (stereo not drawn) [Example 46, 2-({4-[2-(4-chloro-2-fluorophenyl)-2-methyl-1,3-benzodioxol-4-yl]piperidin-1-yl}methyl)-1-[2-(2-oxo-1,3-oxazolidin-3-yl)ethyl]-1H-benzimidazole-6-carboxylic acid]
pEC50 (human GLP-1R [1]; [3]): 7.24
Emax (human GLP-1R [1]): 96%
pEC50 (human GLP-1R [2]): 8.28
Emax (human GLP-1R [2]): 95%

COCCn1c(CN2CCC(c3cccc4c3OC(C)(c3ccc(C#N)cn3)O4)CC2)nc2ccc(C(=O)O)cc21 (stereo not drawn) [Example 93, ammonium 2-({4-[2-(5-cyanopyridin-2-yl)-2-methyl-1,3-benzodioxol-4-yl]piperidin-1-yl}methyl)-1-(2-methoxyethyl)-1H-benzimidazole-6-carboxylate]
pEC50 (human GLP-1R [1]; [3]): < 4.70
pEC50 (human GLP-1R [2]): < 5.19
Emax (human GLP-1R [2]): 84%

O=C(O)c1ccc2nc(CN3CCC(c4cccc5c4O[C@H](c4ccc(Cl)cc4F)O5)CC3)n(C[C@@H]3CCO3)c2c1 [Example 4, Ammonium 2-({4-[(2R)-2-(4-chloro-2-fluorophenyl)-1,3-benzodioxol-4-yl]piperidin-1-yl}methyl)-1-[(2S)-oxetan-2-ylmethyl]-1H-benzimidazole-6-carboxylate]
pEC50 (human GLP-1R [1]; [3]): < 4.70
pEC50 (human GLP-1R [1]; read-out: EC50 in Assay 2, CHO GLP-1R Clone C6, cAMP, geometric mean of replicates): < 4.70
pEC50 (human GLP-1R [2]): 5.80
Emax (human GLP-1R [2]): 87%

CC1(c2ccc(Cl)cc2F)Oc2c(F)ccc(C3CCN(Cc4nc5ccc(C(=O)O)cc5n4C[C@@H]4CCO4)CC3)c2O1 (single isomer, unassigned) [Example 97]
EC50 (human GLP-1R [1]; [4]): 140 nM
Assay 2 Emax (%) (human GLP-1R [1]; [5]): 93%
pEC50 (human GLP-1R [2]): 7.85
Assay 1 Emax (%) (human GLP-1R [2]): 86%

COCCn1c(CN2CCC(c3cccc4c3OC(C)(c3ccc(C)cc3)O4)CC2)nc2ccc(C(=O)O)cc21 (stereo not drawn) [Example 84, 1-(2-methoxyethyl)-2-({4-[2-methyl-2-(4-methylphenyl)-1,3-benzodioxol-4-yl]piperidin-1-yl}methyl)-1H-benzimidazole-6-carboxylic acid]
pEC50 (human GLP-1R [1]; [3]): 7.00
Emax (human GLP-1R [1]): 86%
pEC50 (human GLP-1R [2]): 8.04
Emax (human GLP-1R [2]): 93%

COCCn1c(CN2CCC(c3cccc4c3OC(C)(c3ccc(Cl)cc3F)O4)CC2)nc2ccc(C(=O)O)cc21 (stereo not drawn) [Example 24, 2-({4-[2-(4-chloro-2-fluorophenyl)-2-methyl-1,3-benzodioxol-4-yl]piperidin-1-yl}methyl)-1-(2-methoxyethyl)-1H-benzimidazole-6-carboxylic acid]
pEC50 (human GLP-1R [1]; [3]): 7.31
Emax (human GLP-1R [1]): 110%
pEC50 (human GLP-1R [2]): 8.85
Emax (human GLP-1R [2]): 82%

CN(C)S(=O)(=O)CCn1c(CN2CCC(c3cccc4c3OC(C)(c3ccc(Cl)cc3F)O4)CC2)nc2ccc(C(=O)O)cc21 (stereo not drawn) [Example 47, 2-({4-[2-(4-chloro-2-fluorophenyl)-2-methyl-1,3-benzodioxol-4-yl]piperidin-1-yl}methyl)-1-[2-(dimethylsulfamoyl)ethyl]-1H-benzimidazole-6-carboxylic acid]
pEC50 (human GLP-1R [1]; [3]): 5.85
Emax (human GLP-1R [1]): 76%
pEC50 (human GLP-1R [2]): 7.38
Emax (human GLP-1R [2]): 75%

CC1(c2ccc(Cl)cc2F)Oc2cccc(C3CCN(Cc4nc5ccc(C(=O)O)cc5n4CCN4CCCC4=O)CC3)c2O1 (stereo not drawn) [Example 48, 2-({4-[2-(4-chloro-2-fluorophenyl)-2-methyl-1,3-benzodioxol-4-yl]piperidin-1-yl}methyl)-1-[2-(2-oxopyrrolidin-1-yl)ethyl]-1H-benzimidazole-6-carboxylic acid]
pEC50 (human GLP-1R [1]; [3]): 6.55
Emax (human GLP-1R [1]): 73%
pEC50 (human GLP-1R [2]): 7.85
Emax (human GLP-1R [2]): 81%

COCCn1c(CN2CCC(c3cccc4c3OC(C)(c3ccc(OC)cc3F)O4)CC2)nc2ccc(C(=O)O)cc21 (stereo not drawn) [Example 35, 2-({4-[2-(2-fluoro-4-methoxyphenyl)-2-methyl-1,3-benzodioxol-4-yl]piperidin-1-yl}methyl)-1-(2-methoxyethyl)-1H-benzimidazole-6-carboxylic acid]
pEC50 (human GLP-1R [1]; [3]): 6.77
Emax (human GLP-1R [1]): 89%
pEC50 (human GLP-1R [2]): 8.18
Emax (human GLP-1R [2]): 86%

CC1(c2ccc(Cl)cc2F)Oc2cccc(C3CCN(Cc4nc5ccc(C(=O)O)cc5n4CCO)CC3)c2O1 (stereo not drawn) [Example 75, 2-({4-[2-(4-chloro-2-fluorophenyl)-2-methyl-1,3-benzodioxol-4-yl]piperidin-1-yl}methyl)-1-(2-hydroxyethyl)-1H-benzimidazole-6-carboxylic acid]
pEC50 (human GLP-1R [1]; [3]): 6.00
Emax (human GLP-1R [1]): 71%
pEC50 (human GLP-1R [2]): 7.19
Emax (human GLP-1R [2]): 82%

COCCn1c(CN2CCC(c3cccc4c3OC(C)(c3ccccn3)O4)CC2)nc2ccc(C(=O)O)cc21 (stereo not drawn) [Example 89, 1-(2-methoxyethyl)-2-({4-[2-methyl-2-(pyridin-2-yl)-1,3-benzodioxol-4-yl]piperidin-1-yl}methyl)-1H-benzimidazole-6-carboxylic acid]
pEC50 (human GLP-1R [1]; [3]): 5.54
Emax (human GLP-1R [1]): 87%
pEC50 (human GLP-1R [2]): 6.89
Emax (human GLP-1R [2]): 85%

CC1(c2ccc(C#N)cc2F)Oc2cccc(C3CCN(Cc4nc5ccc(C(=O)O)cc5n4Cc4ncco4)CC3)c2O1 (stereo not drawn) [Example 98, ammonium 2-({4-[2-(4-cyano-2-fluorophenyl)-2-methyl-1,3-benzodioxol-4-yl]piperidin-1-yl}methyl)-1-(1,3-oxazol-2-ylmethyl)-1H-benzimidazole-6-carboxylate]
pEC50 (human GLP-1R [1]; [3]): 6.36
Emax (human GLP-1R [1]): 95%
pEC50 (human GLP-1R [2]): 7.30
Emax (human GLP-1R [2]): 97%

CC1(c2ccc(Cl)cc2F)Oc2cccc(C3CCN(Cc4nc5ccc(C(=O)O)cc5n4CCn4cccn4)CC3)c2O1 (stereo not drawn) [Example 53, 2-({4-[2-(4-chloro-2-fluorophenyl)-2-methyl-1,3-benzodioxol-4-yl]piperidin-1-yl}methyl)-1-[2-(1H-pyrazol-1-yl)ethyl]-1H-benzimidazole-6-carboxylic acid]
pEC50 (human GLP-1R [1]; [3]): 7.28
Emax (human GLP-1R [1]): 84%
pEC50 (human GLP-1R [2]): 8.51
Emax (human GLP-1R [2]): 87%

Cn1cnc(CCn2c(CN3CCC(c4cccc5c4OC(C)(c4ccc(Cl)cc4F)O5)CC3)nc3ccc(C(=O)O)cc32)c1 (stereo not drawn) [Example 55, 2-({4-[2-(4-chloro-2-fluorophenyl)-2-methyl-1,3-benzodioxol-4-yl]piperidin-1-yl}methyl)-1-[2-(1-methyl-1H-imidazol-4-yl)ethyl]-1H-benzimidazole-6-carboxylic acid]
pEC50 (human GLP-1R [1]; [3]): 5.96
Emax (human GLP-1R [1]): 50%
pEC50 (human GLP-1R [2]): 7.13
Emax (human GLP-1R [2]): 81%

CC1(c2ccc(C#N)cc2F)Oc2cccc(C3CCN(Cc4nc5ccc(C(=O)O)cc5n4Cc4ncco4)CC3)c2O1.N (stereo not drawn) [Example 99, ammonium 2-({4-[2-(4-cyano-2-fluorophenyl)-2-methyl-1,3-benzodioxol-4-yl]piperidin-1-yl}methyl)-1-(1,3-oxazol-2-ylmethyl)-1H-benzimidazole-6-carboxylate]
Assay 2 Emax (%) (human GLP-1R [1]; [5]): 91%
pEC50 (human GLP-1R [1]; [3]): 8.27
pEC50 (human GLP-1R [2]): 8.55
Assay 1 Emax (%) (human GLP-1R [2]): 99%

CC1(c2ccc(Cl)cc2F)Oc2cccc(C3CCN(Cc4nc5ccc(C(=O)O)cc5n4C[C@H]4CCCO4)CC3)c2O1 (stereo partly drawn) [Example 64, 2-({4-[2-(4-chloro-2-fluorophenyl)-2-methyl-1,3-benzodioxol-4-yl]piperidin-1-yl}methyl)-1-[(2R)-tetrahydrofuran-2-ylmethyl]-1H-benzimidazole-6-carboxylic acid]
pEC50 (human GLP-1R [1]; [3]): 7.04
Emax (human GLP-1R [1]): 80%
pEC50 (human GLP-1R [2]): 8.04
Emax (human GLP-1R [2]): 94%

COCCn1c(C2CC23CCN(c2cccc4c2OC(C)(c2ccc(Cl)cc2F)O4)CC3)nc2ccc(C(=O)O)cc21 (single isomer, unassigned) [Example 26, 2-{6-[2-(4-chloro-2-fluorophenyl)-2-methyl-1,3-benzodioxol-4-yl]-6-azaspiro[2.5]oct-1-yl}-1-(2-methoxyethyl)-1H-benzimidazole-6-carboxylic acid]
EC50 (human GLP-1R [1]; [4]): > 20000 nM
pEC50 (human GLP-1R [2]): < 4.70
